According to paper PMC3262027 (Journal of Medicinal Chemistry, 2011):
Blank lines part the entries; values can stand above or below the compound they belong to.

What was measured:
[1] = biological target: T1, human quinone reductase 2 (QR2) (Homo sapiens, UniProt P16083); assay: QR2 steady-state kinetic assay; type: biochemical; settings: for inhibitory activity against QR2: result in words
T1 sequence (P16083 1-231): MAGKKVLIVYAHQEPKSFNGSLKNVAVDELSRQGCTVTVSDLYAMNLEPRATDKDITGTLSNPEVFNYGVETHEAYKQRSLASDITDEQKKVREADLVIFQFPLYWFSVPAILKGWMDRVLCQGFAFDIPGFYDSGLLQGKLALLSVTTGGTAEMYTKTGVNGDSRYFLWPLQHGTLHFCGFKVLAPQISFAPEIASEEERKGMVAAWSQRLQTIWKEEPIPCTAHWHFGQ

[2] = tested on: normal prostate stromal cells (PrSCs); settings: result in words; cited from earlier work
[3] = tested on: normal prostate epithelial cells (PrECs); settings: result in words; cited from earlier work

increase in QR2 inhibitory activity ([1]; relative to 12): 10 fold
SMILES: COC(=O)c1cc(C(N)=O)nc2cc(N)c(N)c(Cl)c12 [Compound 23, Methyl 6,7-Diamino-2-carbamoyl-5-chloroquinoline-4-carboxylate]

SMILES: COC(=O)C1CC(O)(C(=O)OC)c2c(N)c(Cl)cc(Cl)c2N1 (centres unmarked) [Compound 26, Dimethyl 5-Amino-6,8-dichloro-4-hydroxy-1,2,3,4-tetrahydroquinoline-2,4-dicarboxylate]
inhibitory activity against QR2 [1]: none showed inhibitory activity

SMILES: Oc1ccc(/C=C/c2cc(O)cc(O)c2)cc1 [resveratrol]
effect on cellular proliferation of PrSCs [2]: dose-dependent inhibition of cellular proliferation
effect on PrEC growth [3]: no effect

SMILES: COC(=O)C1CC2(O)C(=O)Nc3c(Cl)cc(Cl)c(c32)N1 (centres unmarked) [Compound 33, Methyl 6,8-Dichloro-2a-hydroxy-2-oxo-1,2,2a,3,4,5-hexahydropyrrolo[4,3,2-d,e]quinoline-4-carboxylate]
inhibitory activity against QR2 [1]: none showed inhibitory activity
